The results in this text go back to KR20210021686A, “비천연 아미노산-결합 단백질, 및 이를 코딩하는 유전자가 도입된 형질전환체” (priority 2019, dated 2021).

The target of this assay is T1, Escherichia coli leucine-binding protein (류신-결합 단백질, LBP), wild type (WT), SEQ ID NO: 46, YFP-LBP fusion sensor (Escherichia coli, UniProt P04816).
T1 construct: made in house; host or cells: E. coli C321.ΔA (co-transformed with pEvol-CouA-RS)
Nature of the assay: FRET titration, dissociation constant (Table 1), WT LBP. The following applies: 50 mM NaH2PO4, 50 mM NaCl, pH 9.0.

T1 sequence (P04816 24-369): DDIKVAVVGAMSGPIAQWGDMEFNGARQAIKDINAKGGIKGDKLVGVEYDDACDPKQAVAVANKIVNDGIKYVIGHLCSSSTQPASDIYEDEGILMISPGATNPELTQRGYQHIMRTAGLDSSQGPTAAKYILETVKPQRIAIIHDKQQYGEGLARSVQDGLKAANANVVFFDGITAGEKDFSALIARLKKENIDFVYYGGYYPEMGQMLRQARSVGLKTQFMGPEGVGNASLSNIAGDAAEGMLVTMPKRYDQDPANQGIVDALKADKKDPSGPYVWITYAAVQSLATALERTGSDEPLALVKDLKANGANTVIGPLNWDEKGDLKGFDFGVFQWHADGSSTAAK

In general, Kd refers to a measure of binding affinity in units of concentration. Read a high Kd as weaker binding. As for `CC(C)C[C@H](N)C(=O)O` [L-Leu, L-류신], the Kd was determined as 410 nM.
